Assay results reported in ChEMBL document CHEMBL5625248, “Identification of unique indolylcyanoethylenyl sulfonylanilines as novel structural scaffolds of potential antibacterial agents” (Eur J Med Chem, 2023).
In brackets after ≈: the same amount, converted by molar mass.

Columns and labels:
Assay type in all cases: functional
Staphylococcus aureus [1] = test: Antibacterial activity against methicilin-resistant Staphylococcus aureus N315 assessed as inhibition of bacterial growth incubated for 18 hrs by two fold broth microdilution assay
Escherichia coli [2] = test: Antibacterial activity against Escherichia coli ATCC 25922 assessed as inhibition of bacterial growth incubated for 18 hrs by two fold broth microdilution assay
Klebsiella pneumoniae = test: Antibacterial activity against Klebsiella pneumoniae assessed as inhibition of bacterial growth incubated for 18 hrs by two fold broth microdilution assay
Staphylococcus aureus [3] = test: Antibacterial activity against Staphylococcus aureus ATCC 25923 assessed as inhibition of bacterial growth incubated for 18 hrs by two fold broth microdilution assay
Staphylococcus aureus [4] = test: Antibacterial activity against Staphylococcus aureus assessed as inhibition of bacterial growth incubated for 18 hrs by two fold broth microdilution assay
Acinetobacter baumannii = test: Antibacterial activity against Acinetobacter baumannii assessed as inhibition of bacterial growth incubated for 18 hrs by two fold broth microdilution assay
Pseudomonas aeruginosa [5] = test: Antibacterial activity against Pseudomonas aeruginosa ATCC 27853 assessed as inhibition of bacterial growth incubated for 18 hrs by two fold broth microdilution assay
Staphylococcus aureus [6] = test: Antibacterial activity against Staphylococcus aureus ATCC 29213 assessed as inhibition of bacterial growth incubated for 18 hrs by two fold broth microdilution assay
Enterococcus faecalis = test: Antibacterial activity against Enterococcus faecalis assessed as inhibition of bacterial growth incubated for 18 hrs by two fold broth microdilution assay
Escherichia coli [7] = test: Antibacterial activity against Escherichia coli assessed as inhibition of bacterial growth incubated for 18 hrs by two fold broth microdilution assay
Pseudomonas aeruginosa [8] = test: Antibacterial activity against Pseudomonas aeruginosa assessed as inhibition of bacterial growth incubated for 18 hrs by two fold broth microdilution assay

SMILES | MIC (Staphylococcus aureus [1]) [µg/mL] | MIC (Escherichia coli [2]) [µg/mL] | MIC (Klebsiella pneumoniae) [µg/mL] | MIC (Staphylococcus aureus [3]) [µg/mL] | MIC (Staphylococcus aureus [4]) [µg/mL] | MIC (Acinetobacter baumannii) [µg/mL] | MIC (Pseudomonas aeruginosa [5]) [µg/mL] | MIC (Staphylococcus aureus [6]) [µg/mL] | MIC (Enterococcus faecalis) [µg/mL] | MIC (Escherichia coli [7]) [µg/mL] | MIC (Pseudomonas aeruginosa [8]) [µg/mL]
CC(=O)Nc1ccc(S(=O)(=O)/C(C#N)=C/c2cn(C(=O)OC(C)(C)C)c3ccccc23)cc1 | 32 (≈ 68.7 µM) | 128 (≈ 275 µM) | 128 (≈ 275 µM) | 128 (≈ 275 µM) | 128 (≈ 275 µM) | 64 (≈ 137 µM) | 128 (≈ 275 µM) | 2 (≈ 4.3 µM) | 128 (≈ 275 µM) | 128 (≈ 275 µM) | 128 (≈ 275 µM)
N#C/C(=C\c1cn(Cc2cccc(F)c2)c2ccccc12)S(=O)(=O)c1ccc(N)cc1 | 256 (≈ 593 µM) | 64 (≈ 148 µM) | 4 (≈ 9.27 µM) | 64 (≈ 148 µM) | 128 (≈ 297 µM) | 8 (≈ 18.5 µM) | 64 (≈ 148 µM) | 64 (≈ 148 µM) | 128 (≈ 297 µM) | 256 (≈ 593 µM) | 64 (≈ 148 µM)
CCCCCn1cc(/C=C(\C#N)S(=O)(=O)c2ccc(NC(C)=O)cc2)c2ccccc21 | 256 (≈ 588 µM) | 16 (≈ 36.7 µM) | 8 (≈ 18.4 µM) | 8 (≈ 18.4 µM) | 128 (≈ 294 µM) | 64 (≈ 147 µM) | 64 (≈ 147 µM) | 16 (≈ 36.7 µM) | 256 (≈ 588 µM) | 64 (≈ 147 µM) | 64 (≈ 147 µM)
CC(=O)Nc1ccc(S(=O)(=O)/C(C#N)=C/c2cn(Cc3ccc(Cl)c(Cl)c3)c3ccccc23)cc1 | 256 (≈ 488 µM) | 256 (≈ 488 µM) | 64 (≈ 122 µM) | 32 (≈ 61 µM) | 128 (≈ 244 µM) | 32 (≈ 61 µM) | 16 (≈ 30.5 µM) | 4 (≈ 7.63 µM) | 128 (≈ 244 µM) | 128 (≈ 244 µM) | 128 (≈ 244 µM)
N#C/C(=C\c1cn(CC2CCCC2)c2ccccc12)S(=O)(=O)c1ccc(N)cc1 | 256 (≈ 631 µM) | 8 (≈ 19.7 µM) | 4 (≈ 9.86 µM) | 256 (≈ 631 µM) | 256 (≈ 631 µM) | 32 (≈ 78.9 µM) | 64 (≈ 158 µM) | 16 (≈ 39.5 µM) | 32 (≈ 78.9 µM) | 256 (≈ 631 µM) | 64 (≈ 158 µM)
